# Measurements taken from ChEMBL document CHEMBL2429771, “Drug discovery for neglected diseases: molecular target-based and phenotypic approaches” (J Med Chem, 2013).
# pEC50, pIC50, pKi: −log10 of the molar value.
# Key:
# [1] = test system: Trypanosoma brucei; experiment: Inhibition of blood stream form of Trypanosoma brucei overexpressing trypanothione synthase after 72 hrs; assay type: functional, organism-based
# [2] = test system: Trypanosoma brucei; experiment: Inhibition of wild type blood stream form of Trypanosoma brucei expressing trypanothione synthase after 72 hrs; assay type: functional, organism-based
# [3] = test system: Trypanosoma brucei; experiment: Inhibition of blood stream form of trypanothione synthase single knockout Trypanosoma brucei after 72 hrs; assay type: functional, organism-based
# [4] = Inhibition of Trypanosoma brucei trypanothione synthase
# [5] = Inhibition of Leishmania mexicana CRK3/CYC6
# [6] = biological target: CDK2/Cyclin A2 (Homo sapiens, UniProt P24941); experiment: Inhibition of human CDK2/Cyclin A; assay type: protein-complex assay
# [7] = Inhibition of Trypanosoma brucei PTR1 by spectrophotometry; settings: read-out: Ki(app)
Compound,pIC50 [5],pIC50 [6],pKi [7],other results
CN(C)CCCNC(=O)Cn1nc(-c2cccc(F)c2)c2ccccc21,,,,pEC50 [1]: 4.64; pEC50 [2]: 5.15; pEC50 [3]: 5.92; pIC50 [4]: 7.35
O=C(Nc1cc(-c2ccc(Cl)cc2)n[nH]1)C1CCCCC1,6.47,< 4.00,,
Cc1cccc(-c2ccc3nc(NC(=O)CCC4CCCC4)nn3c2)c1,> 8.30,< 4.00,,
COc1cccc(NC(=O)NC2=CC(=O)CC(C)(C)C2)c1,7.40,< 4.00,,
Nc1nc2ccc(Cl)cc2[nH]1,,,4.96,
Nc1nc2ccccc2[nH]1,,,3.64,
